Laboratory results reported in ChEMBL document CHEMBL1125058 (J Med Chem, 1990).

Legend:
Aromatase = molecular target: T1, Aromatase (Homo sapiens, UniProt P11511)
T1 sequence (P11511 whole entry): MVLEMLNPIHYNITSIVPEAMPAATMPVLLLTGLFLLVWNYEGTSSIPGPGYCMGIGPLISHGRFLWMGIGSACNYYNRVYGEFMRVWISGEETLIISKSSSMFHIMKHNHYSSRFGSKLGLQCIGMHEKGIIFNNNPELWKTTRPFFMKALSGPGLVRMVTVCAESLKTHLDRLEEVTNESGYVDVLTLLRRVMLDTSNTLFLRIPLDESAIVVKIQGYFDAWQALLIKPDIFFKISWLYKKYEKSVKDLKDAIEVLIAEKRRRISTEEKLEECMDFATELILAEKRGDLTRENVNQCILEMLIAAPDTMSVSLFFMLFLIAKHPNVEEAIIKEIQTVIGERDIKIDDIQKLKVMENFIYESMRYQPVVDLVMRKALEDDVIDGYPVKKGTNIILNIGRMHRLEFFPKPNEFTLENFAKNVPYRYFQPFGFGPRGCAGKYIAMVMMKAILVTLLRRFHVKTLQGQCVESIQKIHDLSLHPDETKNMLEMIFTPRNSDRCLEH
Description: Inhibition of Cytochrome P450 19A1 in human placenta

[1] = Compound was evaluated for the spectral dissociation constant; assay type: ADME; conditions: read-out: Ks

Row | IC50 (Aromatase) | Kd [1] | Compound
1 | 3.2 µM |  | CCCCCCC[C@]1(c2ccncc2)CCC(=O)NC1=O
2 |  | 510 nM | CCCCCCCCN1C(=O)CCC(CC)(c2ccncc2)C1=O (centres undefined)
3 | 3.6 µM |  | CCCCCC[C@]1(c2ccncc2)CCC(=O)NC1=O
4 | 2.5 µM |  | CCCCC[C@]1(c2ccncc2)CCC(=O)NC1=O
